The source of these data is US7595397B2, “Compounds which modulate the CB2 receptor” (Boehringer Ingelheim International GmbH, priority 2005, dated 2009).

This assay addresses T1, human CB2R (Homo sapiens, UniProt P34972).
T1 construct: host or cells: CHO cells
Nature of the assay: CB2R mediated modulation of cAMP synthesis. Type of assay: cell-based. The settings on record: CHO cells expressing human CB2R; decrease of forskolin induced cAMP; found 'through the use of the above described assays'. The procedure:
B. CB2R Mediated Modulation of cAMP Synthesis:
CHO cells expressing human CB2R (Euroscreen) were plated at a density of 5000 cells per well in 384 well plates and incubated overnight at 37° C. After removing the media, the cells were treated with test compounds diluted in stimulation buffer containing 1 mM IBMX, 0.25% BSA and 10 uM Forskolin. The assay was incubated for 30 minutes at 37° C. Cells were lysed and the cAMP concentration was measured using DiscoverX-XS cAMP kit, following the manufacturer's protocol. In this setting, agonists will decrease forskolin induced production of cAMP while inverse agonists will further increase forskolin induced production of cAMP. EC50 of agonists were calculated as follows. The maximal amount of cAMP produced by forskolin compared to the level of cAMP inhibited by 1 uM CP55940 is defined as 100%. The EC50 value of each test compound was determined as the concentration at which 50% of the forskolin-stimulated cAMP synthesis was inhibited. Data was analyzed using a four-parameter logistic model. (Model 205 of XLfit 4.0).

T1 sequence (P34972 whole entry): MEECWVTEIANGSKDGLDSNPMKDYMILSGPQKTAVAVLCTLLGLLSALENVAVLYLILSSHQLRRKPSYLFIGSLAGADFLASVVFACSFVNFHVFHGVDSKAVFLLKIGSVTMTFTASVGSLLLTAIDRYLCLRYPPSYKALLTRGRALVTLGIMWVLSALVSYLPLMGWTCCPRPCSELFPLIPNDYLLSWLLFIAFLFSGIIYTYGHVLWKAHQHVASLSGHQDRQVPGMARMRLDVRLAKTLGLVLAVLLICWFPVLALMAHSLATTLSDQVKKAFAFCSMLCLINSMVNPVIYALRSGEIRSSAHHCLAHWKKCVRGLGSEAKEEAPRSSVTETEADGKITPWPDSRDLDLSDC

For `Clc1ccccc1-c1ccc(CN2CCCC(c3ccccc3)C2)cc1` (centres unmarked) [1-(2′-Chloro-biphenyl-4-ylmethyl)-3-phenyl-piperidine], the agonistic activity entry is “agonistic activity”.

As to `O=S(=O)(c1ccccc1)N1CCN(Cc2ccc(-c3ccccc3C(F)(F)F)cc2)CC1c1ccccc1` (centres unmarked) [1-Benzenesulfonyl-2-phenyl-4-(2′-trifluoromethyl-biphenyl-4-ylmethyl)-piperazine], the agonistic activity result is given as “agonistic activity”.

On to `FC(F)(F)c1ccccc1-c1ccc(CN2CCOC(c3ccccc3)C2)cc1` (centres unmarked) [2-Phenyl-4-(2′-trifluoromethyl-biphenyl-4-ylmethyl)-morpholine], for which the agonistic activity entry is “agonistic activity”.

Regarding `c1ccc(C2CN(Cc3ccc(-c4ccccn4)cc3)CCO2)cc1` (centres unmarked) [2-Phenyl-4-(4-pyridin-2-yl-benzyl)-morpholine], the agonistic activity result is “agonistic activity”.

On to `c1ccc(C2CN(Cc3ccc(-c4ccsc4)cc3)CCO2)cc1` (centres unmarked) [2-Phenyl-4-(4-thiophen-3-yl-benzyl)-morpholine], for which the agonistic activity result was “agonistic activity”.

On to `FC(F)(F)c1ccccc1-c1ccc(CN2CCNC(Cc3ccccc3)C2)cc1` (centres unmarked) [3-Benzyl-1-(2′-trifluoromethyl-biphenyl-4-ylmethyl)-piperazine], for which the agonistic activity entry is listed as “agonistic activity”.

For `FC(F)(F)c1ccccc1-c1ccc(CN2CCCC(c3ccccc3)C2)cc1` (centres unmarked) [3-Phenyl-1-(2′-trifluoromethyl-biphenyl-4-ylmethyl)-piperidine], the agonistic activity result is reported as “agonistic activity”.

Consider `Clc1cccc(-c2ccc(CN3CCOC(c4ccccc4)C3)cc2)c1Cl` (centres unmarked) [4-(2′,3′-Dichloro-biphenyl-4-ylmethyl)-2-phenyl-morpholine], for which the agonistic activity result is listed as “agonistic activity”.

As to `Cc1ccc(Cl)c(-c2ccc(CN3CCOC(c4ccccc4)C3)cc2)c1` (centres unmarked) [4-(2′-Chloro-5′-methyl-biphenyl-4-ylmethyl)-2-phenyl-morpholine], the agonistic activity result is “agonistic activity”.

`Clc1ccccc1-c1ccc(CN2CCOC(c3ccccc3)C2)cc1` (centres unmarked) [4-(2′-Chloro-biphenyl-4-ylmethyl)-2-phenyl-morpholine]: the agonistic activity entry was “agonistic activity”.

As for `CCOc1ccccc1-c1ccc(CN2CCOC(c3ccccc3)C2)cc1` (centres unmarked) [4-(2′-Ethoxy-biphenyl-4-ylmethyl)-2-phenyl-morpholine], the agonistic activity result is given as “agonistic activity”.

Take `FC(F)(F)c1ccccc1-c1ccc(CN2CCOCC2)cc1` [4-(2′-Trifluoromethyl-biphenyl-4-ylmethyl)-morpholine]: the agonistic activity entry is on record as “agonistic activity”.

For `Clc1sccc1-c1ccc(CN2CCOC(c3ccccc3)C2)cc1` (centres unmarked) [4-[4-(2-Chloro-thiophen-3-yl)-benzyl]-2-phenyl-morpholine], the agonistic activity entry was “agonistic activity”.

Turning to `N#Cc1ccccc1-c1ccc(CN2CCOC(c3ccccc3)C2)cc1` (centres unmarked) [4′-(2-Phenyl-morpholin-4-ylmethyl)-biphenyl-2-carbonitrile], the agonistic activity result is on record as “agonistic activity”.

For `FC(F)(F)c1ccccc1-c1ccc(CN2CCO[C@@H](c3ccccc3)C2)cn1` [(S)-2-Phenyl-4-[6-(2-trifluoromethyl-phenyl)-pyridin-3-ylmethyl]-morpholine], the agonistic activity entry is given as “agonistic activity”.

With `Clc1cccc(-c2ccc(CN3CCO[C@@H](c4ccccc4)C3)cc2)c1Cl` [Example 183, (S)-4-(2′,3′-Dichloro-biphenyl-4-ylmethyl)-2-phenyl-morpholine], the agonistic activity result is listed as “agonistic activity”.

Take `c1ccc(C[C@H]2CN(Cc3ccc(-c4ccccc4)nc3)CCN2)cc1` [Example 186, (S)-3-Benzyl-1-(6-phenyl-pyridin-3-ylmethyl)-piperazine]: the agonistic activity entry is “agonistic activity”.

In the case of `c1ccc(-c2ccc(CN3CCO[C@@H](c4ccccc4)C3)cn2)cc1` [Example 188, (S)-2-Phenyl-4-(6-phenyl-pyridin-3-ylmethyl)-morpholine], the agonistic activity result was “agonistic activity”.

Consider `Clc1cccc(-c2ccc(CN3CCO[C@@H](c4ccccc4)C3)cn2)c1` [Example 189, (S)-4-[6-(3-Chloro-phenyl)-pyridin-3-ylmethyl]-2-phenyl-morpholine], for which the agonistic activity entry is “agonistic activity”.

Regarding `Clc1sccc1-c1ccc(CN2CCO[C@@H](c3ccccc3)C2)cc1` [Example 191, (S)-4-[4-(2-Chloro-thiophen-3-yl)-benzyl]-2-phenyl-morpholine], the agonistic activity entry is recorded as “agonistic activity”.

Regarding `N#Cc1ccccc1-c1ccc(CN2CCO[C@@H](c3ccccc3)C2)cc1` [Example 192, 4′-((S)-2-Phenyl-morpholin-4-ylmethyl)-biphenyl-2-carbonitrile], the agonistic activity entry is “agonistic activity”.

Take `Clc1ccccc1-c1ccc(CN2CCO[C@@H](c3ccccc3)C2)cc1` [Example 193, (S)-4-(2′-Chloro-biphenyl-4-ylmethyl)-2-phenyl-morpholine]: the agonistic activity result is “agonistic activity”.

`O=C(c1ccccc1)N1CCN(Cc2ccc(-c3ccccc3C(F)(F)F)cc2)CC1Cc1ccccc1` (centres unmarked) [Phenyl-[2-benzyl-4-(2′-trifluoromethyl-biphenyl-4-ylmethyl)-piperazin-1-yl]-methanone]: the agonistic activity entry is given as “agonistic activity”.
